# Data reported in publication PMC9933715 (Antimicrobial Agents and Chemotherapy, 2023).
# Like-named read-outs stand apart in the source and are kept apart here.
# Experiments:
# [1] = test system: DENV-R2A (Rluc-expressing DENV, serotype 2 strain 16681); experiment: microbe, parasite or virus in culture; type: cell-based, Dengue virus; conditions: for activity at 50 µM: Dengue virus, Huh7.5, 48 h
# [2] = test system: ZIKV-R2A (strain FSS13025); experiment: microbe, parasite or virus in culture; type: cell-based; conditions: Zika virus, Huh7.5, 48 h, read-out: ZIKV-R2A replication (fold DMSO) Mean
# Huh7.5 cells = experiment: Cell viability, CellTiter-Glo luminescent assay; conditions: for Cell viability (fold DMSO) Mean: deconvolution screen, singletons, 50 µM, uninfected Huh7.5
# [3] = read-out: DENV-R2A replication (fold DMSO) Mean, deconvolution screen, singletons, 50 µM, Huh7.5, 2 days postinfection
smiles,measurement,setting,value
"Cn1cncc1C(=O)O [AS-5483, Cn1cncc1C(=O)O]",activity at 50 µM,[1]; [3],99%
same,activity at 50 µM,[2],99%
same,Cell viability (fold DMSO) Mean,Huh7.5 cells,1.12 fold DMSO
"Clc1ccc(N2CCNCC2)nc1 [AS-5607, Clc1ccc(nc1)N2CCNCC2]",activity at 50 µM,[1]; [3],76%
same,activity at 50 µM,[2],81%
same,Cell viability (fold DMSO) Mean,Huh7.5 cells,1.13 fold DMSO
"COC(=O)[C@H]1CCC(=O)N1 [AS-7023, COC(=O)[C@H]1CCC(=O)N1]",activity at 50 µM,[1]; [3],102%
same,activity at 50 µM,[2],103%
same,Cell viability (fold DMSO) Mean,Huh7.5 cells,1.19 fold DMSO
"OCc1c[nH]c(-c2ccccc2)n1 [CB-0713, OCc1c[nH]c(n1)c2ccccc2]",activity at 50 µM,[1]; [3],92%
same,activity at 50 µM,[2],100%
same,Cell viability (fold DMSO) Mean,Huh7.5 cells,1.02 fold DMSO
"CC(=O)c1ccccc1-n1ccnc1 [Compound 1B-028, CC(=O)c1ccccc1n2ccnc2]",activity at 50 µM,[1]; [3],59%
same,activity at 50 µM,[2],58%
same,Cell viability (fold DMSO) Mean,Huh7.5 cells,0.78 fold DMSO
"NC(=O)c1ccco1 [Compound 2B-052, NC(=O)c1occc1]",activity at 50 µM,[1]; [3],98%
same,activity at 50 µM,[2],112%
same,Cell viability (fold DMSO) Mean,Huh7.5 cells,1.17 fold DMSO
"CC1CCN(Cc2ccc(Cl)nc2)CC1 [Compound 2X-0836, CC1CCN(Cc2ccc(Cl)nc2)CC1]",activity at 50 µM,[1]; [3],89%
same,activity at 50 µM,[2],104%
same,Cell viability (fold DMSO) Mean,Huh7.5 cells,1.16 fold DMSO
"c1ccn(-c2cnccn2)c1 [Compound 6N-039, c1ccn(c1)c2cnccn2]",activity at 50 µM,[1]; [3],95%
same,activity at 50 µM,[2],99%
same,Cell viability (fold DMSO) Mean,Huh7.5 cells,0.93 fold DMSO
"O=C1CCC(c2ccccc2)=NN1 [Compound 7L-571S, O=C1CCC(=NN1)c2ccccc2]",activity at 50 µM,[1]; [3],107%
same,activity at 50 µM,[2],124%
same,Cell viability (fold DMSO) Mean,Huh7.5 cells,0.99 fold DMSO
"Cc1cnn2c(C3CC3)ccnc12 [Compound 7T-0305, Cc1cnn2c(ccnc12)C3CC3]",activity at 50 µM,[1]; [3],108%
same,activity at 50 µM,[2],111%
same,Cell viability (fold DMSO) Mean,Huh7.5 cells,1.06 fold DMSO
"Clc1ncc(CN2CCCCC2)s1 [Compound 8N-010, Clc1ncc(CN2CCCCC2)s1]",activity at 50 µM,[1]; [3],101%
same,activity at 50 µM,[2],111%
same,Cell viability (fold DMSO) Mean,Huh7.5 cells,0.95 fold DMSO
"Clc1ncc(Cn2ccnc2)s1 [Compound 8P-013, Clc1ncc(Cn2ccnc2)s1]",activity at 50 µM,[1]; [3],104%
same,activity at 50 µM,[2],118%
same,Cell viability (fold DMSO) Mean,Huh7.5 cells,0.94 fold DMSO
"CC(=O)c1ccc2cc(O)ccc2c1 [Compound 8X-0242, CC(=O)c1ccc2cc(O)ccc2c1]",activity at 50 µM,[1]; [3],86%
same,activity at 50 µM,[2],81%
same,Cell viability (fold DMSO) Mean,Huh7.5 cells,1.00 fold DMSO
"N#CCC(=O)Nc1ccccc1 [Compound 9B-046, O=C(CC#N)Nc1ccccc1]",activity at 50 µM,[1]; [3],96%
same,activity at 50 µM,[2],104%
same,Cell viability (fold DMSO) Mean,Huh7.5 cells,1.17 fold DMSO
"NC(=O)NCc1cccc(Cl)c1 [Compound 9M-050, NC(=O)NCc1cccc(Cl)c1]",activity at 50 µM,[1]; [3],100%
same,activity at 50 µM,[2],110%
same,Cell viability (fold DMSO) Mean,Huh7.5 cells,1.27 fold DMSO
"CNC(=O)c1cn(C)c2ccccc12 [Compound 9T-1495, CNC(=O)c1cn(C)c2ccccc12]",activity at 50 µM,[1]; [3],103%
same,activity at 50 µM,[2],98%
"Cc1cc(C)n2ccnc2c1 [Compound 9X-0854, Cc1cc(C)n2ccnc2c1]",activity at 50 µM,[1]; [3],94%
same,activity at 50 µM,[2],98%
same,Cell viability (fold DMSO) Mean,Huh7.5 cells,1.21 fold DMSO
"Cc1onc(-c2ccccc2)c1C#N [Compound 10B-058, Cc1onc(c2ccccc2)c1C#N]",activity at 50 µM,[1]; [3],102%
same,activity at 50 µM,[2],106%
same,Cell viability (fold DMSO) Mean,Huh7.5 cells,0.98 fold DMSO
"CN1C(=O)Cc2ccccc2C1=O [Compound 10L-733, CN1C(=O)Cc2ccccc2C1=O]",activity at 50 µM,[1]; [3],101%
same,activity at 50 µM,[2],114%
same,Cell viability (fold DMSO) Mean,Huh7.5 cells,0.94 fold DMSO
"OCc1cc2c(cc1Br)OCO2 [Compound 10P-113, OCc1cc2OCOc2cc1Br]",activity at 50 µM,[1]; [3],86%
same,activity at 50 µM,[2],103%
same,Cell viability (fold DMSO) Mean,Huh7.5 cells,0.88 fold DMSO
"CC(=O)c1cc(Br)cs1 [Compound 10X-0139, CC(=O)c1cc(Br)cs1]",activity at 50 µM,[1]; [3],98%
same,activity at 50 µM,[2],108%
same,Cell viability (fold DMSO) Mean,Huh7.5 cells,1.20 fold DMSO
"CC(C)(C)OC(=O)N1CCCCn2nc(CO)cc2C1 [Compound 10X-0603, CC(C)(C)OC(=O)N1CCCCn2nc(CO)cc2C1]",activity at 50 µM,[1]; [3],106%
same,activity at 50 µM,[2],104%
same,Cell viability (fold DMSO) Mean,Huh7.5 cells,1.07 fold DMSO
"CNC(=O)c1cc(Br)c[nH]1 [Compound 10Y-0822, CNC(=O)c1cc(Br)c[nH]1]",activity at 50 µM,[1]; [3],75%
same,activity at 50 µM,[2],77%
same,Cell viability (fold DMSO) Mean,Huh7.5 cells,0.89 fold DMSO
"CCN1C(=O)CCCc2ccccc21 [Compound 11N-585S, CCN1C(=O)CCCc2ccccc12]",activity at 50 µM,[1]; [3],102%
same,activity at 50 µM,[2],97%
same,Cell viability (fold DMSO) Mean,Huh7.5 cells,0.93 fold DMSO
"CC1(C)CN2C(=O)c3ccccc3C2S1 (stereo not drawn) [Compound 12R-0242, CC1(C)CN2C(S1)c3ccccc3C2=O]",activity at 50 µM,[1]; [3],62%
same,activity at 50 µM,[2],74%
same,Cell viability (fold DMSO) Mean,Huh7.5 cells,0.81 fold DMSO
"Cc1cc2c(cc1C)NC(C)CC(=O)N2 (stereo not drawn) [Compound 12W-0869, CC1CC(=O)Nc2cc(C)c(C)cc2N1]",activity at 50 µM,[1]; [3],85%
same,activity at 50 µM,[2],97%
same,Cell viability (fold DMSO) Mean,Huh7.5 cells,1.09 fold DMSO
CC(=O)c1ccc2[nH]c(=O)[nH]c2c1 [Compound 76],"inhibitory activity against DENV-R2A (SAR, in words)","[1]; 6A1HI analogues, 50 μM",loss of inhibitory activity
same,activity at 50 µM,"[1]; read-out: DENV-R2A replication (Fold DMSO), 6A1HI analogues, test concentration = 50 µM, Huh7.5 cells",87%
same,activity at 50 µM,"[1]; read-out: DENV-R2A replication (fold DMSO), Table 2, 6A1HI analogues, 50 μM, Huh7.5, 2 days postinfection",87%
same,Cell viability (Fold DMSO),"Huh7.5 cells; 6A1HI analogues, test concentration = 50 µM, Huh7.5 cells",0.98 Fold DMSO
same,Cell viability (Fold DMSO),"Huh7.5 cells; Table 2, 6A1HI analogues, 50 μM, Huh7.5, 2 days",0.98 fold DMSO
"Cc1cc(O)cc(C)c1CO [DK-0713, Cc1cc(O)cc(C)c1CO]",activity at 50 µM,[1]; [3],96%
same,activity at 50 µM,[2],93%
same,Cell viability (fold DMSO) Mean,Huh7.5 cells,1.04 fold DMSO
"Cn1cc(Br)c2c(N)ncnc21 [EK-0205, Cn1cc(Br)c2c(N)ncnc12]",activity at 50 µM,[1]; [3],51%
same,activity at 50 µM,[2],63%
same,Cell viability (fold DMSO) Mean,Huh7.5 cells,0.87 fold DMSO
"Cc1ccc(N2CCNC2=O)c(C)c1 [FA-0890, Cc1ccc(N2CCNC2=O)c(C)c1]",activity at 50 µM,[1]; [3],99%
same,activity at 50 µM,[2],112%
same,Cell viability (fold DMSO) Mean,Huh7.5 cells,1.08 fold DMSO
"Cc1cccc(N2CCNCC2)n1 [FS-1568, Cc1cccc(n1)N2CCNCC2]",activity at 50 µM,[1]; [3],91%
same,activity at 50 µM,[2],102%
same,Cell viability (fold DMSO) Mean,Huh7.5 cells,1.22 fold DMSO
"CCCC(=O)c1cccs1 [FS-1782, CCCC(=O)c1cccs1]",activity at 50 µM,[1]; [3],104%
same,activity at 50 µM,[2],104%
same,Cell viability (fold DMSO) Mean,Huh7.5 cells,1.02 fold DMSO
"Nc1oncc1-c1ccc(Cl)cc1 [FS-2048, Nc1oncc1c2ccc(Cl)cc2]",activity at 50 µM,[1]; [3],57%
same,activity at 50 µM,[2],61%
same,Cell viability (fold DMSO) Mean,Huh7.5 cells,0.90 fold DMSO
"O=C(c1ccccc1)C1(O)CCCCC1 [FS-3226, OC1(CCCCC1)C(=O)c2ccccc2]",activity at 50 µM,[1]; [3],96%
same,activity at 50 µM,[2],109%
same,Cell viability (fold DMSO) Mean,Huh7.5 cells,1.07 fold DMSO
"Cc1ccc(C2CNCCN2)cc1 (stereo not drawn) [FS-3294, Cc1ccc(cc1)C2CNCCN2]",activity at 50 µM,[1]; [3],74%
same,activity at 50 µM,[2],96%
same,Cell viability (fold DMSO) Mean,Huh7.5 cells,1.08 fold DMSO
"OCc1cc2cc(Br)ccc2[nH]1 [GA-0936, OCc1cc2cc(Br)ccc2[nH]1]",activity at 50 µM,[1]; [3],13%
same,activity at 50 µM,[2],63%
same,Cell viability (fold DMSO) Mean,Huh7.5 cells,0.83 fold DMSO
"Clc1ccc2nncn2c1 [GC-0731, Clc1ccc2nncn2c1]",activity at 50 µM,[1]; [3],94%
same,activity at 50 µM,[2],102%
same,Cell viability (fold DMSO) Mean,Huh7.5 cells,1.03 fold DMSO
"CC(=O)Nc1cc(C)ccc1F [MS-0037, CC(=O)Nc1cc(C)ccc1F]",activity at 50 µM,[1]; [3],103%
same,activity at 50 µM,[2],114%
same,Cell viability (fold DMSO) Mean,Huh7.5 cells,1.28 fold DMSO
"CNC(=O)Nc1ccc(F)c(C)c1 [MS-0046, CNC(=O)Nc1ccc(F)c(C)c1]",activity at 50 µM,[1]; [3],96%
same,activity at 50 µM,[2],97%
same,Cell viability (fold DMSO) Mean,Huh7.5 cells,1.00 fold DMSO
"O=C1CCc2ccccc21 [PS-5770, O=C1CCc2ccccc12]",activity at 50 µM,[1]; [3],103%
same,activity at 50 µM,[2],103%
